# Literature values in patent US20170106067A1, “COMBINATORIAL IMMUNOTHERAPY FOR PANCREATIC CANCER TREATMENT” (THE JOHNS HOPKINS UNIVERSITY, priority 2014, published 2017).
# Tested on: metastatic PDA
# Settings: Le et al., 2013
substance,measurement,value
ipilimumab,clinical anti tumor activity in metastatic PDA patients,failed to demonstrate durable and effective anti tumor activity
